pIC50: −log10 of the molar value.
Assays:
[1] = biological target: T1, PRS (prolyl-tRNA synthetase) (Homo sapiens, UniProt P07814); assay: In vitro PRS enzyme activity inhibition experiment ([3H]proline, liquid scintillation); type: biochemical; details: purified PRS protein subcloned from EPRS cDNA; 37° C., 5 to 10 minutes; read-out: PRS IC50
T1 construct: the portion corresponding to PRS in cDNA of EPRS was subcloned; made in house
T1 sequence (P07814 1007-1512 limits assumed): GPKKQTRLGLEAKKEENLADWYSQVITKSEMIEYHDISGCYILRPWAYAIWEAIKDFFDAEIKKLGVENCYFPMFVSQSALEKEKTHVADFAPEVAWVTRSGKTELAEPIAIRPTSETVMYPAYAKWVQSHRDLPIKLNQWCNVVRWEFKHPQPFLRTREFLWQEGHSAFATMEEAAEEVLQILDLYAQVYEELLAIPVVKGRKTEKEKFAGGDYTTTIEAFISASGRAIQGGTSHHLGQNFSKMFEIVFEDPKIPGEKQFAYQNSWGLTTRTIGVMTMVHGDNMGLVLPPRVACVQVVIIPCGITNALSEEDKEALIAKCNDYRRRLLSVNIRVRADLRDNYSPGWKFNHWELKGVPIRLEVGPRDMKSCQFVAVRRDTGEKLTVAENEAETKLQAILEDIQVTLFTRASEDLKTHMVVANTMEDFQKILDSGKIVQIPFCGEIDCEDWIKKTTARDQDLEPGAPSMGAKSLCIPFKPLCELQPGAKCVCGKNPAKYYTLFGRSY
Summary of the method: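 Purified human PRS domain subcloned from EPRS cDNA, reacted at 37 °C for 5–10 min in 20 mM KPO4 pH 7.4, 6 mM MgAc, 5 mM ATP, tRNA, 0.5 mM DTT and [3H]proline. Compounds tested at 1 μM. Aminoacylation read on TCA-treated filter paper by liquid scintillation, giving % inhibition or IC50.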

[2] = system: NCI-H460 cells; assay: Cancer cell growth inhibition experiment (MTT assay); type: cell-based; details: Homo sapiens; NCI-H460 lung cancer cell line; 48 hours treatment; MTT cell viability
Protocol: NCI-H460 cells, lung cancer cell lines, were cultured in 5% CO2, 37° C. incubator using a flask for 75 cm^2 tissue culture. 96-well plates were used for the evaluation. These were prepared by differently applying at concentrations in the range of 6,000 to 12,000 cells/well according to the growth rate of the cell lines. The medium containing 5% FBS were dispensed in 200 μL/well and used. The medium were cultured for 24 hours. After confirming the cell status and dispensing form of a 96-well plate under a microscope, they were used for subsequent experiments. The compounds were evaluated at concentrations of 100, 30, 10, 3, 1, 0.3, 0.03, 0.01 μM. After removing the existing medium, the compounds with various concentrations were treated in an amount of 200 μL/well. The compounds-treated plates were further cultured for 48 hours, and the cell viabilities were measured by MTT assay to calculate IC50 values.
% Inhibition and IC50 values of the respective compounds were calculated and analyzed using Sigma Plot 8.0. The case where the derived IC50 is 5 μM or less is represented by “A”, the case where the IC50 is 5 to 30 μM is represented by “B”, and the case where the IC50 is 30 μM or higher is represented by “C”.

Row | Structure (SMILES) | pIC50 [1] | pIC50 [2]
1 | Cc1nc2cc(Cl)c(Cl)cc2n1CC(=O)C[C@H]1NCCC[C@@H]1O [Example 46, 1-(5,6-dichloro-2-methyl-1H-benzo[d]imidazol-1-yl)-3-((2R,3S)-3-hydroxypiperidin-2-yl)propan-2-one] | > 7.00 | ≤ 4.52
2 | Cc1ccc2c(ncn2CC(=O)C[C@H]2NCCC[C@@H]2O)c1C [Example 16, 1-(4,5-dimethyl-1H-benzo[d]imidazol-1-yl)-3-((2R,3S)-3-hydroxypiperidin-2-yl)propan-2-one] | > 7.00 | 4.52 to 5.30
3 | O=C(C[C@H]1NCCC[C@@H]1O)Cn1cnc2c(Cl)c(Br)ccc21 [Example 22, 1-(5-bromo-4-chloro-1H-benzo[d]imidazol-1-yl)-3-((2R,3S)-3-hydroxypiperidin-2-yl)propan-2-one] | > 7.00 | ≥ 5.30
4 | O=C(C[C@H]1NCCC[C@@H]1O)Cn1nnc2cc(Cl)ccc21 [Example 99, 1-(5-chloro-1H-benzo[d][1,2,3]triazol-1-yl)-3-((2R,3S)-3-hydroxypiperidin-2-yl)propan-2-one] | 6.30 to 7.00 | ≤ 4.52
5 | Cc1c(Br)ccc2c1ncn2CC(O)C[C@H]1NCCC[C@@H]1O (stereo partly drawn) [Example 89, (2R,3S)-2-(3-(5-bromo-4-methyl-1H-benzo[d]imidazol-1-yl)-2-hydroxypropyl)piperidin-3-ol] | > 7.00 | ≤ 4.52
6 | Cc1c(F)ccc2c1ncn2CC(=O)C[C@H]1NCCC[C@@H]1O [Example 13, 1-(5-fluoro-4-methyl-1H-benzo[d]imidazol-1-yl)-3-((2R,3S)-3-hydroxypiperidin-2-yl)propan-2-one] | > 7.00 | ≥ 5.30
7 | O=C(C[C@H]1NCCC[C@@H]1O)Cn1nnc2ccc(Cl)cc21 [Example 100, 1-(6-chloro-1H-benzo[d][1,2,3]triazol-1-yl)-3-((2R,3S)-3-hydroxypiperidin-2-yl)propan-2-one] | < 6.30 | ≤ 4.52
8 | O=C(C[C@H]1NCCC[C@@H]1O)Cn1cnc2cc(Cl)ccc21 [Example 2, 1-(5-chloro-1H-benzo[d]imidazol-1-yl)-3-((2R,3S)-3-hydroxypiperidin-2-yl)propan-2-one] | > 7.00 | 4.52 to 5.30
9 | O=C(C[C@H]1NCCC[C@@H]1O)Cn1cnc2c(F)c(F)ccc21 [Example 11, 1-(4,5-difluoro-1H-benzo[d]imidazol-1-yl)-3-((2R,3S)-3-hydroxypiperidin-2-yl)propan-2-one] | 6.30 to 7.00 | 4.52 to 5.30
10 | OC(C[C@H]1NCCC[C@@H]1O)Cn1cnc2cc(Cl)c(Cl)cc21 (stereo partly drawn) [Example 70, (2R,3S)-2-(3-(5,6-dichloro-1H-benzo[d]imidazol-1-yl)-2-hydroxypropyl)piperidin-3-ol] | 6.30 to 7.00 | 4.52 to 5.30
11 | OC(C[C@H]1NCCC[C@@H]1O)Cn1cnc2c(Cl)c(Br)ccc21 (stereo partly drawn) [Example 71, (2R,3S)-2-(3-(5-bromo-4-chloro-1H-benzo[d]imidazol-1-yl)-2-hydroxypropyl)piperidin-3-ol] | > 7.00 | 4.52 to 5.30
12 | Cc1cc2ncn(CC(=O)C[C@H]3NCCC[C@@H]3O)c2cc1C [Example 9, 1-(5,6-dimethyl-1H-benzo[d]imidazol-1-yl)-3-((2R,3S)-3-hydroxypiperidin-2-yl)propan-2-one] | > 7.00 | ≤ 4.52
13 | O=C(C[C@H]1NCCC[C@@H]1O)Cn1cnc2c(F)c(Br)ccc21 [Example 20, 1-(5-bromo-4-fluoro-1H-benzo[d]imidazol-1-yl)-3-((2R,3S)-3-hydroxypiperidin-2-yl)propan-2-one] | > 7.00 | ≥ 5.30
14 | O=C(C[C@H]1NCCC[C@@H]1O)Cn1cnc2ccc(Cl)cc21 [Example 3, 1-(6-chloro-1H-benzo[d]imidazol-1-yl)-3-((2R,3S)-3-hydroxypiperidin-2-yl)propan-2-one] | > 7.00 | 4.52 to 5.30
15 | O=C(C[C@H]1NCCC[C@@H]1O)Cn1ccc2ccc(Br)nc21 [Example 92, 1-(6-bromo-1H-pyrrolo[2,3-b]pyridin-1-yl)-3-((2R,3S)-3-hydroxypiperidin-2-yl)propan-2-one] | < 6.30 | ≤ 4.52
16 | O=C(C[C@H]1NCCC[C@@H]1O)Cn1c(CO)nc2ccccc21 [Example 56, 1-(2-(hydroxymethyl)-1H-benzo[d]imidazol-1-yl)-3-((2R,3S)-3-hydroxypiperidin-2-yl)propan-2-one] | > 7.00 | ≤ 4.52
17 | Cc1c(Br)ccc2c1ncn2CC(=O)C[C@H]1NCCC[C@@H]1O [Example 15, 1-(5-bromo-4-methyl-1H-benzo[d]imidazol-1-yl)-3-((2R,3S)-3-hydroxypiperidin-2-yl)propan-2-one] | > 7.00 | ≥ 5.30
18 | O=C(C[C@H]1NCCC[C@@H]1O)Cn1cnc2cc(F)c(Br)cc21 [Example 26, 1-(6-bromo-5-fluoro-1H-benzo[d]imidazol-1-yl)-3-((2R,3S)-3-hydroxypiperidin-2-yl)propan-2-one] | > 7.00 | ≥ 5.30
19 | Cc1cc(Br)cc2c1ncn2CC(=O)C[C@H]1NCCC[C@@H]1O [Example 23, 1-(6-bromo-4-methyl-1H-benzo[d]imidazol-1-yl)-3-((2R,3S)-3-hydroxypiperidin-2-yl)propan-2-one] | > 7.00 | 4.52 to 5.30

Source: patent US10081634B2, “Heterocyclic compound” (Daewoong Pharmaceutical Co., Ltd., priority 2014, dated 2018)
